The record followed here is ChEMBL document CHEMBL1201862, “PubChem BioAssay data set” (2004).

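Where inhibition never reached the appropriate level, the endpoint shown equals the highest concentration tested. Otherwise, values were interpolated linearly from a five-concentration, 48-hour dose response in 96-well plates. The concentration for 50% growth inhibition is given as GI50.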 Active and inactive are the calls of the source. Rule as the data show it: active = GI50 up to about 1.1 µM and inactive = higher.

Among the test systems are SNB-19; HOP-62; HL-60; OVCAR-3; SK-MEL-5; HT-29; U-251; TK-10; RXF 393; MCF7; SF-268; PC-3; Hs-578T; HCT-116; SF-295; IGROV-1; SK-MEL-2; BT-549; K562.
Assay in all cases: inhibition of tumour cell growth, NCI panel, 48 h

As for `CCCCc1ccc(Nc2nc(S)c3ncn(COCCO)c3n2)cc1`, the GI50 in the test on SNB-19 was 31.2 µM (inactive); in the test with HOP-62, 31 µM (inactive); with HL-60, 25.2 µM (inactive); in the test on OVCAR-3 it was 21 µM (inactive); in the test with SK-MEL-5, 62.1 µM (inactive); in the test with HT-29, 50.5 µM (inactive). For the same compound, the GI50 is 35 µM (inactive) with U-251; 66.2 µM (inactive) in the test with TK-10; 56 µM (inactive) in the test on RXF 393; 24.2 µM (inactive) in the test on MCF7; > 10 µM (inactive) with SF-268; 32.9 µM (inactive) in the test on PC-3. The GI50 in the test on Hs-578T was 36.3 µM (inactive); with HCT-116, 65 µM (inactive); with SF-295, 64.7 µM (inactive); with IGROV-1, 36 µM (inactive); with SK-MEL-2 it was 23.4 µM (inactive); in the test with BT-549 it was 56.9 µM (inactive). In the test on K562, the GI50 was 15.5 µM (inactive).

Consider `CCC/C(Cl)=N/OC(=O)Nc1cc(C(F)(F)F)ccc1OC`, for which the GI50 was 17.6 µM (inactive) in the test on SNB-19; 18.1 µM (inactive) in the test with HOP-62; 1.77 µM (inactive) in the test on HL-60; 16.4 µM (inactive) with OVCAR-3; 7.93 µM (inactive) with SK-MEL-5; 20.7 µM (inactive) in the test on HT-29. Besides, the GI50 in the test with U-251 was 17.7 µM (inactive); in the test on TK-10, 18.5 µM (inactive); in the test on RXF 393 it was 6.31 µM (inactive); in the test with MCF7 it was 12.4 µM (inactive); in the test with SF-268 it was 16.1 µM (inactive); with PC-3, 16.2 µM (inactive). Also, the GI50 with Hs-578T was 27.1 µM (inactive); in the test with HCT-116, 9.89 µM (inactive); in the test with SF-295, 18.3 µM (inactive); with IGROV-1, 16.6 µM (inactive); in the test on SK-MEL-2, 16.1 µM (inactive); with BT-549, 15.5 µM (inactive). The GI50 with K562 was 1.79 µM (inactive).

In the case of `COc1ccc(C2(C3c4cc(OC)c(OC)cc4CCN3C)SCCCS2)cc1O` (centres undefined), the GI50 is > 100 µM (inactive) with SNB-19; > 100 µM (inactive) in the test on HOP-62; > 100 µM (inactive) in the test with HL-60; > 100 µM (inactive) in the test with OVCAR-3; > 100 µM (inactive) in the test with SK-MEL-5; 49.3 µM (inactive) with HT-29. For the same compound, the GI50 was > 100 µM (inactive) with U-251; > 100 µM (inactive) in the test on TK-10; > 100 µM (inactive) with RXF 393; > 100 µM (inactive) in the test with MCF7; > 100 µM (inactive) in the test with SF-268; 47.1 µM (inactive) with PC-3. For the same compound, the GI50 in the test on Hs-578T is 23.7 µM (inactive); in the test with HCT-116, 67.9 µM (inactive); in the test with SF-295, 71.8 µM (inactive); in the test on IGROV-1 it was > 100 µM (inactive); in the test with SK-MEL-2 it was > 100 µM (inactive); with BT-549 it was > 100 µM (inactive). Also, in the test with K562, the GI50 is 95.1 µM (inactive).

Consider `Cn1c(=O)oc2cc(C(=S)N3CCCCC3)ccc21`, for which the GI50 in the test with SNB-19, in the test on HOP-62, with HL-60, with OVCAR-3, with SK-MEL-5 and with HT-29 was > 100 µM (inactive) each time. Also, the GI50 in the test with U-251, with TK-10, with RXF 393, in the test on MCF7, in the test on SF-268 and in the test with PC-3 was > 100 µM (inactive) each time. In addition, the GI50 in the test with Hs-578T, in the test with HCT-116, with SF-295, with IGROV-1, with SK-MEL-2 and in the test on BT-549 was > 100 µM (inactive) in each case. Moreover, the GI50 with K562 is > 100 µM (inactive).

Take `C=CC(=O)C#Cc1cnc(OC)nc1OC`: the GI50 was 19.1 µM (inactive) in the test with SNB-19; 22.8 µM (inactive) in the test on HOP-62; 1.09 µM (active) in the test on HL-60; 18.2 µM (inactive) in the test on OVCAR-3; 15.2 µM (inactive) in the test on SK-MEL-5; 16.1 µM (inactive) in the test with HT-29. The GI50 is 13.9 µM (inactive) in the test with U-251; 15.6 µM (inactive) in the test with TK-10; 25.2 µM (inactive) in the test on RXF 393; 5.13 µM (inactive) in the test with MCF7; 30.1 µM (inactive) with SF-268; 19.8 µM (inactive) in the test with PC-3. Moreover, the GI50 in the test with Hs-578T was 33.3 µM (inactive); in the test on HCT-116, 9.59 µM (inactive); in the test with SF-295 it was 41.4 µM (inactive); in the test with IGROV-1, 22.9 µM (inactive); in the test on SK-MEL-2, 22.1 µM (inactive); in the test with BT-549 it was 12.3 µM (inactive). Besides, the GI50 with K562 was 1.38 µM (inactive).

`Fc1cc(-c2cc(-c3ccccc3)no2)c(Cl)cc1Cl`: the GI50 was > 40.6 µM (inactive) with SNB-19; 22.7 µM (inactive) with HOP-62; 19.7 µM (inactive) in the test with HL-60; 21.6 µM (inactive) with OVCAR-3; 16.4 µM (inactive) with SK-MEL-5; 15.8 µM (inactive) with HT-29. For the same compound, the GI50 was 10.3 µM (inactive) in the test on U-251; > 34.7 µM (inactive) with TK-10; 7.11 µM (inactive) in the test on RXF 393; 4.25 µM (inactive) in the test on MCF7; 19.4 µM (inactive) in the test on SF-268; 13.7 µM (inactive) with PC-3. Further, the GI50 with Hs-578T is > 34.8 µM (inactive); with HCT-116, 13.8 µM (inactive); in the test on SF-295, 22.5 µM (inactive); with IGROV-1 it was 12.7 µM (inactive); in the test on SK-MEL-2, 23.6 µM (inactive); with BT-549, 18.5 µM (inactive). In addition, in the test on K562, the GI50 is 29.4 µM (inactive).

For `CCCCCCCCCc1cc(O)c(O)cc1CCCCCCCCC`, the GI50 in the test with SNB-19, in the test with HOP-62, in the test with HL-60, in the test with OVCAR-3, with SK-MEL-5 and in the test on HT-29 was > 10 µM (inactive) in each case. The GI50 in the test with U-251, in the test with TK-10, with RXF 393, in the test with MCF7, in the test with SF-268 and in the test with PC-3 was > 10 µM (inactive) throughout. Also, the GI50 in the test on Hs-578T, in the test on HCT-116, in the test on SF-295, in the test with IGROV-1, in the test with SK-MEL-2 and with BT-549 was > 10 µM (inactive) throughout. Further, the GI50 in the test on K562 was > 10 µM (inactive).

Take `CC(=O)Oc1c(C)c2c(c3ccccc13)OC(C)(C)C2`: the GI50 was 26.3 µM (inactive) in the test on SNB-19; 20.1 µM (inactive) in the test on HOP-62; 22.4 µM (inactive) in the test on HL-60; 22.5 µM (inactive) in the test on OVCAR-3; 10.5 µM (inactive) in the test on SK-MEL-5; 18.1 µM (inactive) in the test with HT-29. Also, the GI50 in the test with U-251 is 18.6 µM (inactive); in the test with TK-10, 18.6 µM (inactive); in the test with RXF 393, 20.7 µM (inactive); with MCF7, 17.5 µM (inactive); with SF-268, 15.5 µM (inactive); in the test on PC-3, 22.6 µM (inactive). The GI50 is 21 µM (inactive) with Hs-578T; 18 µM (inactive) with HCT-116; 17 µM (inactive) in the test on SF-295; 17.2 µM (inactive) in the test with IGROV-1; 18 µM (inactive) in the test on SK-MEL-2; 24.7 µM (inactive) in the test with BT-549. The GI50 with K562 was 29.2 µM (inactive).

`CCOC(=O)c1nc2ccccc2nc1Nc1ccc(F)cc1`: the GI50 is 12.1 µM (inactive) in the test on SNB-19; 15.8 µM (inactive) in the test with HOP-62; > 100 µM (inactive) in the test with HL-60; > 72.4 µM (inactive) in the test on OVCAR-3; > 100 µM (inactive) with SK-MEL-5; > 100 µM (inactive) with HT-29. For the same compound, the GI50 is 18.8 µM (inactive) with U-251; 30.6 µM (inactive) with TK-10; 11.9 µM (inactive) in the test with RXF 393; > 60.8 µM (inactive) with MCF7; 8.39 µM (inactive) in the test on SF-268; > 86.9 µM (inactive) in the test on PC-3. In addition, the GI50 in the test with Hs-578T was 10.2 µM (inactive); in the test on HCT-116 it was 20.3 µM (inactive); in the test with SF-295, 12.9 µM (inactive); with IGROV-1, 13.7 µM (inactive); in the test on SK-MEL-2 it was 23.6 µM (inactive); in the test on BT-549, 16.2 µM (inactive). The GI50 with K562 is > 100 µM (inactive).

Turning to `CCOC(=O)c1c2cccccc-2nc1Nc1cccc2c(C)ccnc12`, the GI50 in the test with SNB-19 is > 10 µM (inactive); in the test with HOP-62 it was > 10 µM (inactive); in the test on HL-60, 4.47 µM (inactive); with OVCAR-3, 4.81 µM (inactive); in the test with SK-MEL-5, > 10 µM (inactive); in the test on HT-29, 4.89 µM (inactive). In addition, the GI50 with U-251 was > 10 µM (inactive); in the test with TK-10, > 10 µM (inactive); in the test on RXF 393, > 10 µM (inactive); with MCF7, 8.24 µM (inactive); in the test with SF-268, > 10 µM (inactive); with PC-3, 5.75 µM (inactive). The GI50 in the test on Hs-578T was > 10 µM (inactive); with HCT-116, 5.12 µM (inactive); in the test on SF-295, > 10 µM (inactive); with IGROV-1, 4.82 µM (inactive); with SK-MEL-2, > 10 µM (inactive); with BT-549, > 10 µM (inactive). Besides, the GI50 in the test with K562 was 4.01 µM (inactive).

In the case of `Cc1ccnc2nc(-c3ccc(F)cc3)cc(O)c12`, the GI50 in the test with SNB-19 is > 78.7 µM (inactive); in the test with HOP-62, 68.7 µM (inactive); with HL-60, 5.97 µM (inactive); with OVCAR-3, 67.6 µM (inactive); in the test with SK-MEL-5 it was 22.6 µM (inactive); in the test on HT-29 it was 18.7 µM (inactive). Also, the GI50 is 38 µM (inactive) in the test on U-251; > 97.3 µM (inactive) in the test with TK-10; > 82.8 µM (inactive) in the test on RXF 393; 24.5 µM (inactive) in the test on MCF7; 74.6 µM (inactive) in the test on SF-268; > 80.4 µM (inactive) in the test on PC-3. The GI50 in the test on Hs-578T was 72.4 µM (inactive); with HCT-116, 16.9 µM (inactive); in the test on SF-295, 86.3 µM (inactive); in the test with IGROV-1, 26.4 µM (inactive); with SK-MEL-2, 57.3 µM (inactive); in the test on BT-549 it was > 100 µM (inactive). In addition, the GI50 in the test on K562 is 5.55 µM (inactive).
